This passage reports IC50 results from US20190060296A1, “DISCOVERY OF SMALL MOLECULES THAT TARGET THE ANDROGEN RECEPTOR AND USES” (Massachusetts Institute of Technology, priority 2017, published 2019).

The assay addresses T1, AR-v7 (Homo sapiens, UniProt P10275).
T1 construct: expressed in transfected cells
T1 sequence (P10275 1-644 isoform P10275-3): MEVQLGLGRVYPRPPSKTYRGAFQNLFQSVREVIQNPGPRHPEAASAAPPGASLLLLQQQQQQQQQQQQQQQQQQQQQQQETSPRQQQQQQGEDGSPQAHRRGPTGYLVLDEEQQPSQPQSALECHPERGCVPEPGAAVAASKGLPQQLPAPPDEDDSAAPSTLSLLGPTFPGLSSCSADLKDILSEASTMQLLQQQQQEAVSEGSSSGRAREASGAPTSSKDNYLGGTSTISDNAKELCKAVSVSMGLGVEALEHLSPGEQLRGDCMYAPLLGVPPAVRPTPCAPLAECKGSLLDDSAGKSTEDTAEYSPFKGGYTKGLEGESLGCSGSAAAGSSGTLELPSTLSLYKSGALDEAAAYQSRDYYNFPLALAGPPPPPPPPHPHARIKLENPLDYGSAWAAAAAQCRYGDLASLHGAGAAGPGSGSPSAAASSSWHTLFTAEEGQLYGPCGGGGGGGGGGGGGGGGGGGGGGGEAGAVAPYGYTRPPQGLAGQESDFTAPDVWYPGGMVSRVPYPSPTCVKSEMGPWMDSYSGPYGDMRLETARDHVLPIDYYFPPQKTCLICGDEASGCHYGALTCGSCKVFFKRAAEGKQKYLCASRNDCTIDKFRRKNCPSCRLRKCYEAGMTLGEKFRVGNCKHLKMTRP
In words: dual luciferase reporter assay, stable LNCaP cell line with AR-v7 under DOX control and MMTV-driven firefly luciferase. Format: cell-based. To be noted: Reporter Assay at 24 hours; dose response starting at 50 μM, serially diluted 1:1; LNCaP cells. An excerpt:
CMV-driven Renilla luciferase is also included as a control. The relative luciferase activity is the firefly luciferase activity normalized to the Renilla luciferase activity. A “dual-reporter assay” is conceptually similar to the single reporter assay described above, and can correct for experimental variation (e.g., cell number, transfection efficiency, etc.). In the case of a dual-reporter assay, a “reporter system” is used, where cells are transfected with two plasmids, the first plasmid comprising the regulatory gene of interest and a first reporter, and the second plasmid comprising a constitutive promoter and a second reporter, wherein the second reporter and the first reporter have biologically distinct activities. The ratio of the first reporter activity (e.g., controlled by the regulatory gene of interest) relative to the second reporter activity (e.g., controlled by the constitutive promoter) corrects for experimental variation. […] In certain embodiments, one or more compounds selected from the SMM screen are submitted to a screen comprising a dual-luciferase assay, the dual-luciferase assay further comprising (i) a first vector comprising a first promoter and a first reporter and (ii) a second vector comprising a second promoter and a second reporter. In certain embodiments, the first vector comprises a first promoter and a first reporter, wherein the first promoter is the MMTV promoter and the first reporter is firefly luciferase. Activation of the androgen receptor, or variant thereof, will promote increased expression of the MMTV-driven firefly luciferase. In certain embodiments, the second vector comprises a second promoter and a second reporter, wherein the second promoter is the cytomegalovirus (CMV) promoter and the second reporter is Renilla luciferase. The CMV promoter is constitutively activated, leading to a basal expression level of Renilla luciferase that serves as a control and can be used to normalize the MMTV-driven firefly luciferase expression level. […] In an embodiment, the first luciferase is firefly luciferase. In an embodiment, the second luciferase is Renilla luciferase. […] In certain embodiments, the firefly luciferase is under control of an MMTV promoter that contains one or more androgen response element (ARE). […] In total, 50,000 molecules were screened against the androgen receptor variant AR-v7 (exons 1-3 truncate of AR-FL) using a small molecule microarray (SMM) (see FIG. 1). […] PSA was used as a readout for both AR-v7 and AR activity in the qPCR assay in LNCaP cells. Selected SMM assay positives were administered to cells at two doses (10 and 30 μM) and PSA expression was evaluated using the Single Shot qPCR kit (BioRad) (see FIG. 2).

For orientation: IC50 means the concentration needed to halve the response being measured. Read a high IC50 as weaker potency in that assay. Regarding `O=C(NCC[C@@H]1C[C@@H]2C=C[C@H]1C2)c1cccc(OC2CCN(C(=O)C3CC3)CC2)c1` (relative stereo) [KI-ARv-01, N-{2-[(1S*,2S*,4S*)-bicyclo[2.2.1]hept-5-en-2-yl]ethyl}-3-{[1-(cyclopropylcarbonyl)-4-piperidinyl]oxy}benzamide], the IC50 was found to be 5.43 µM.

`Fc1ccc(N2CCCN(CC3[C@H]4CNC[C@@H]34)CC2)cc1` (relative stereo) [KI-ARv-04, (1R*,5S*,6r)-6-{[4-(4-fluorophenyl)-1,4-diazepan-1-yl]methyl}-3-azabicyclo[3.1.0]hexane] had an IC50 of 11.3 µM.

The compound `CS(=O)(=O)N1CCC(Oc2cccc(C(=O)NCC[C@@H]3C[C@@H]4C=C[C@H]3C4)c2)CC1` (relative stereo) [KI-ARv-08, N-{2-[(1S*,2S*,4S*)-bicyclo[2.2.1]hept-5-en-2-yl]ethyl}-3-{[1-(methylsulfonyl)-4-piperidinyl]oxy}benzamide] had an IC50 of 24.7 µM. The value for `COc1ccc(N2CCN(C(=O)c3sc4ncnc(NC[C@H]5C[C@@H]6C=C[C@H]5C6)c4c3C)CC2)cc1` (relative stereo) [KI-ARv-09, N-[(1R*,2S*,4R*)-bicyclo[2.2.1]hept-5-en-2-ylmethyl]-6-{[4-(4-methoxyphenyl)-1-piperazinyl]carbonyl}-5-methylthieno[2,3-d]pyrimidin-4-amine] was over 50 µM. Turning to `Cc1c(C(=O)NCc2ccncc2)sc2ncnc(NC[C@H]3C[C@@H]4C=C[C@H]3C4)c12` (relative stereo) [RO3682, 4-{[(1R*,2S*,4R*)-bicyclo[2.2.1]hept-5-en-2-ylmethyl]amino}-5-methyl-N-(4-pyridinylmethyl)thieno[2,3-d]pyrimidine-6-carboxamide], it took 12.5 µM to reach half-maximal inhibition (IC50).

Consider `Cc1c(C(=O)N(C)Cc2cccc3ncccc23)sc2ncnc(NCC3C[C@@H]4C=C[C@H]3C4)c12` (stereo partly drawn) [KI-ARv-02, 4-((((1R,4R)-bicyclo[2.2.1]hept-5-en-2-yl)methyl)amino)-N,5-dimethyl-N-(quinolin-5-ylmethyl)thieno[2,3-d]pyrimidine-6-carboxamide], for which the IC50 amounted to 6.86 µM. The value for `CCNc1ncc(-c2cc(-c3cc(C)sc3C)nc(N)c2C#N)cn1` [KI-ARv-05, 2-amino-6-(2,5-dimethyl-3-thienyl)-4-[2-(ethylamino)pyrimidin-5-yl]nicotinonitrile] was 50 µM.

The compound `Cc1cc(N2CCC(NCc3cccc(N4CCCC4)c3)CC2)nc(N)n1` [KI-ARv-06, 4-methyl-6-{4-[(3-pyrrolidin-1-ylbenzyl)amino]piperidin-1-yl}pyrimidin-2-amine] gave an IC50 of 14.8 µM.
